Source: US4439426A, “Semisynthetic macrolidic antibiotics, intermediate compounds for their preparation and related pharmaceutical compositions containing them” (priority 1981, dated 1984)
In brackets after ≈: the same amount, converted by molar mass. Several values for one entry are separate records, joined by “and”; a condition that tells them apart may be missing. Identical values can stand only once. Like-named read-outs stand apart in the source and are kept apart here.

Tests used:
[1] = Stability in acidic environment at 25° C. (half-life of initial microbiological activity); type: physicochemical; conditions: aqueous solution, read-out: t 1/2 (converted)
Protocol: Stability in acidic environnment at 25° C. of the novel
Note: t 1/2 represents the time for reducing to one half the initial powe
of the antibiotic determined by microbiological method through diffusion
on a plate using the test stock Microccocus luteus (Sarcina lutea) ATCC

[2] = test system: Acholeplasma laidlawii ATCC 23206 LRP 204; experiment: Bacteriostatic power in solid medium (MIC); type: cell-based; conditions: Acholeplasma laidlawii, ATCC23206, read-out: Minimum inhibiting concentration
Outline: (§1)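 Values are minimum inhibiting concentrations, taken as the measure of bacteriostatic power against both aerobic and anaerobic strains of either Gram type.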

[3] = test system: Bacillus subtilis LRP 25; experiment: Bacteriostatic power in solid medium (MIC); type: cell-based; conditions: Bacillus subtilis, LRP25, read-out: Minimum inhibiting concentration
Outline: as §1

[4] = test system: Bacteroides fragilis ATCC 23745 LRP 205; experiment: Bacteriostatic power in solid medium (MIC); type: cell-based; conditions: Bacteroides fragilis, ATCC23745, read-out: Minimum inhibiting concentration
Outline: as §1

[5] = test system: Fusobacteriumnecrophroum ATCC 27852 LRP 210; experiment: Bacteriostatic power in solid medium (MIC); type: cell-based; conditions: read-out: Minimum inhibiting concentration
Outline: as §1

[6] = test system: Haemophilus influenzae ATCC 19418 LRP 213; experiment: Bacteriostatic power in solid medium (MIC); type: cell-based; conditions: Haemophilus influenzae, ATCC19418, read-out: Minimum inhibiting concentration
Outline: as §1

[7] = test system: Klelsiella pneumoniae LRP 54; experiment: Bacteriostatic power in solid medium (MIC); type: cell-based; conditions: read-out: Minimum inhibiting concentration
Outline: as §1

[8] = test system: Micrococcus luteus ATCC 15957 LRP 193; experiment: Bacteriostatic power in solid medium (MIC); type: cell-based; conditions: Micrococcus luteus, ATCC15957, read-out: Minimum inhibiting concentration
Outline: as §1

[9] = test system: Proteus vulgaris ATCC 6380 LRP 13; experiment: Bacteriostatic power in solid medium (MIC); type: cell-based; conditions: Proteus vulgaris, ATCC6380, read-out: Minimum inhibiting concentration
Outline: as §1

[10] = test system: Pseudomonas aeruginosa LRP 9; experiment: Bacteriostatic power in solid medium (MIC); type: cell-based; conditions: Pseudomonas aeruginosa, LRP9, read-out: Minimum inhibiting concentration
Outline: as §1

[11] = test system: Shigella sonnei LRP 5; experiment: Bacteriostatic power in solid medium (MIC); type: cell-based; conditions: LRP5, read-out: Minimum inhibiting concentration
Outline: as §1

[12] = test system: Staphylococcus aureus ATCC 14154 LRP 78; experiment: Bacteriostatic power in solid medium (MIC); type: cell-based; conditions: Staphylococcus aureus, ATCC14154, read-out: Minimum inhibiting concentration
Outline: as §1

[13] = test system: Staphylococcus aureus ATCC 6538P LRP 14; experiment: Bacteriostatic power in solid medium (MIC); type: cell-based; conditions: Staphylococcus aureus, ATCC6538P, read-out: Minimum inhibiting concentration
Outline: as §1

[14] = test system: Staphylococcus aureus ATCC 6538P LRP 39; experiment: Bacteriostatic power in solid medium (MIC); type: cell-based; conditions: Staphylococcus aureus, ATCC6538P, read-out: Minimum inhibiting concentration
Outline: as §1

[15] = test system: Streptococcus faecalis LRP 7; experiment: Bacteriostatic power in solid medium (MIC); type: cell-based; conditions: Enterococcus faecalis, LRP7, read-out: Minimum inhibiting concentration
Outline: as §1

[16] = test system: Streptococcus faecalis subsp. zymogenes ATCC 12958 LRP 61; experiment: Bacteriostatic power in solid medium (MIC); type: cell-based; conditions: Enterococcus faecalis, ATCC12958, read-out: Minimum inhibiting concentration
Outline: as §1

[17] = test system: Streptococcus pneumoniae ATCC 6303 LRP 52; experiment: Bacteriostatic power in solid medium (MIC); type: cell-based; conditions: Streptococcus pneumoniae, ATCC6303, read-out: Minimum inhibiting concentration
Outline: as §1

[18] = test system: Streptococcus pneumoniae ATCC 6303 LRP 53; experiment: Bacteriostatic power in solid medium (MIC); type: cell-based; conditions: Streptococcus pneumoniae, ATCC6303, read-out: Minimum inhibiting concentration
Outline: as §1

[19] = test system: Streptococcus pyogenes ATCC 8668 LRP 197; experiment: Bacteriostatic power in solid medium (MIC); type: cell-based; conditions: Streptococcus pyogenes, ATCC8668, read-out: Minimum inhibiting concentration
Outline: as §1

[20] = test system: Streptococcus pyogenes ATCC 8668 LRP 34; experiment: Bacteriostatic power in solid medium (MIC); type: cell-based; conditions: Streptococcus pyogenes, ATCC8668, read-out: Minimum inhibiting concentration
Outline: as §1

[21] = test system: Clostridium perfrigens ATCC 3624 LRP 206; experiment: microbe, parasite or virus in culture; type: cell-based; conditions: ATCC3624, read-out: Minimum inhibiting concentration
Outline: as §1

[22] = test system: Salmonella typhy LRP 8; experiment: microbe, parasite or virus in culture; type: cell-based; conditions: LRP8, solid medium, read-out: Minimum inhibiting concentration
Outline: as §1

[23] = test system: Corynebacterium diphteriae LRP 24; experiment: Bacteriostatic power in liquid medium (MIC); type: cell-based; conditions: Corynebacterium, LRP24, read-out: Minimum inhibiting concentration
Outline: as §1

[24] = test system: Staphylococcus aureus ATCC 6538 P LRP 39; experiment: Bacteriostatic power in liquid medium (MIC); type: cell-based; conditions: Staphylococcus aureus, ATCC6538, read-out: Minimum inhibiting concentration
Outline: as §1

[25] = test system: Streptococcus faecalis subs. zymogenes ATCC 12958 LRP 61; experiment: Bacteriostatic power in liquid medium (MIC); type: cell-based; conditions: Enterococcus faecalis, ATCC12958, read-out: Minimum inhibiting concentration
Outline: as §1

[26] = test system: Streptococcus pneumoniae ATCC 6303 LRP 35; experiment: Bacteriostatic power in liquid medium (MIC); type: cell-based; conditions: Streptococcus pneumoniae, ATCC6303, read-out: Minimum inhibiting concentration
Outline: as §1

[27] = test system: Streptococcus pyogenes ATCC 8668 LRP 34; experiment: Bacteriostatic power in liquid medium (MIC); type: cell-based; conditions: Streptococcus pyogenes, ATCC8668, read-out: Minimum inhibiting concentration
Outline: as §1

[28] = test system: Corynebacterium diphteriae LRP 24; experiment: Minimum bactericidal concentration (MBC); type: cell-based
Description: (§2) the bacterial power, expressed as the minimum bactericidal power (MBC) against some Gram positive aerobic stocks (table 5).

[29] = test system: Staphylococcus aureus ATCC 6538 P LRP 39; experiment: Minimum bactericidal concentration (MBC); type: cell-based
Description: as §2

[30] = test system: Streptococcus faecalis subs. zymogenes LRP 61; experiment: Minimum bactericidal concentration (MBC); type: cell-based
Description: as §2

[31] = test system: Streptococcus pneumoniae ATCC 6303 LRP 35; experiment: Minimum bactericidal concentration (MBC); type: cell-based
Description: as §2

[32] = test system: Streptococcus pyogenes ATCC 8668 LRP 34; experiment: Minimum bactericidal concentration (MBC); type: cell-based
Description: as §2

[33] = Serum concentrations in the rat after oral administration; type: in vivo; conditions: 100 mg/kg per os
Protocol: administration of 100 mg/kg per os. The values, at the
several sampling times, correspond to mcg of product per ml of serum*.

Q: What does the source list for `CC[C@H]1OC(=O)[C@H](C)[C@@H](O[C@H]2C[C@@](C)(OC)[C@@H](O)[C@H](C)O2)[C@H](C)[C@@H](O[C@@H]2O[C@H](C)C[C@H](N(C)C)[C@H]2O)[C@](C)(O)C[C@](C)(F)C(=O)[C@H](C)[C@@H](O)[C@]1(C)O` [P-80206, (8S)-8-fluoroerythromycin A]?
A: half-life ([1]; pH 2.0, 25° C.): 9 h; half-life ([1]; pH 3.0, 25° C.): 82.5 h; MIC [2]: 0.097 µg/mL (≈ 0.129 µM); MIC [3]: 0.049 µg/mL (≈ 0.0652 µM); MIC [4]: 0.195 µg/mL (≈ 0.259 µM); MIC [5]: 1.56 µg/mL (≈ 2.07 µM); MIC [6]: 3.12 µg/mL (≈ 4.15 µM); MIC [7]: 12.5 µg/mL (≈ 16.6 µM); MIC [8]: 25 µg/mL (≈ 33.2 µM); MIC [9]: 25 µg/mL (≈ 33.2 µM); MIC [10]: 25 µg/mL (≈ 33.2 µM); MIC [11]: 25 µg/mL (≈ 33.2 µM); MIC [12]: 25 µg/mL (≈ 33.2 µM); MIC [13]: 0.097 µg/mL (≈ 0.129 µM); MIC [14]: 0.097 µg/mL (≈ 0.129 µM); MIC [15]: 0.195 µg/mL (≈ 0.259 µM); MIC [16]: 0.195 µg/mL (≈ 0.259 µM); MIC [17]: 0.024 µg/mL (≈ 0.0319 µM); MIC [18]: 0.024 µg/mL (≈ 0.0319 µM); MIC [19]: 0.012 µg/mL (≈ 0.016 µM); MIC [20]: 0.012 µg/mL (≈ 0.016 µM); MIC [21]: 0.78 µg/mL (≈ 1.04 µM); MIC [22]: 12.5 µg/mL (≈ 16.6 µM); MIC [23]: 0.012 µg/mL (≈ 0.016 µM); MIC [24]: 0.195 µg/mL (≈ 0.259 µM); MIC [25]: 0.39 µg/mL (≈ 0.519 µM); MIC [26]: 0.049 µg/mL (≈ 0.0652 µM); MIC [27]: 0.097 µg/mL (≈ 0.129 µM); MBC/MIC [28]: 8; MBC ([28]; Corynebacterium, LRP24, read-out: Minimum bactericidal concentration (MBC)): 0.097 µg/mL (≈ 0.129 µM); MBC/MIC [29]: 16; MBC ([29]; Staphylococcus aureus, ATCC6538, read-out: Minimum bactericidal concentration (MBC)): 3.12 µg/mL (≈ 4.15 µM); MBC/MIC [30]: 16; MBC ([30]; Enterococcus faecalis, read-out: Minimum bactericidal concentration (MBC)): 6.25 µg/mL (≈ 8.31 µM); MBC/MIC [31]: 4; MBC ([31]; Streptococcus pneumoniae, ATCC6303, read-out: Minimum bactericidal concentration (MBC)): 0.195 µg/mL (≈ 0.259 µM); MBC/MIC [32]: 8; MBC ([32]; Streptococcus pyogenes, ATCC8668, read-out: Minimum bactericidal concentration (MBC)): 0.78 µg/mL (≈ 1.04 µM); Serum concentration, individual rat ([33]; 0.5 hours, 30 min): 0.078 mcg of product per ml of serum and 0.198 mcg of product per ml of serum and 0.630 mcg of product per ml of serum and 0.487 mcg of product per ml of serum and 1.105 mcg of product per ml of serum and 1.333 mcg of product per ml of serum; Serum concentration, individual rat ([33]; 1 hour, 60 min): 8.505 mcg of product per ml of serum and 0.880 mcg of product per ml of serum and 1.273 mcg of product per ml of serum and 1.251 mcg of product per ml of serum and 1.714 mcg of product per ml of serum and 0.531 mcg of product per ml of serum; Serum concentration, individual rat ([33]; 2 hours, 120 min): 3.712 mcg of product per ml of serum and 6.516 mcg of product per ml of serum and 3.510 mcg of product per ml of serum and 6.907 mcg of product per ml of serum and 6.601 mcg of product per ml of serum and 7.195 mcg of product per ml of serum; Serum concentration, individual rat ([33]; 4 hours, 240 min): 1.792 mcg of product per ml of serum and 2.134 mcg of product per ml of serum and 1.270 mcg of product per ml of serum and 2.817 mcg of product per ml of serum and 2.362 mcg of product per ml of serum and 2.115 mcg of product per ml of serum; Serum concentration, individual rat ([33]; 6 hours, 360 min): 0.867 mcg of product per ml of serum and 0.393 mcg of product per ml of serum and 1.192 mcg of product per ml of serum and 1.792 mcg of product per ml of serum and 1.620 mcg of product per ml of serum and 1.147 mcg of product per ml of serum; concentration at 0.5 h ([33]; rat, in vivo, po, 100 mg/kg, 0.5 hours, read-out: Serum concentration, average): 638 ng/mL; concentration at 1 h ([33]; rat, in vivo, po, 100 mg/kg, 1 hour, read-out: Serum concentration, average): 2360 ng/mL; concentration at 2 h ([33]; rat, in vivo, po, 100 mg/kg, 2 hours): 5740 ng/mL; concentration at 4 h ([33]; rat, in vivo, po, 100 mg/kg, 4 hours, read-out: Serum concentration, average): 2080 ng/mL; concentration at 6 h ([33]; rat, in vivo, po, 100 mg/kg, 6 hours, read-out: Serum concentration, average): 1170 ng/mL
